We go through one molecule from US8097585B2, “Methods of treating inflammation by administration of heme oxygenase-1 and products of heme degradation” (priority 2002, dated 2012).

The subject of test [1] is B6AF1 splenocytes or purified T cells. As to the kind of experiment: Con A and anti-CD3 mAb mediated proliferation assay. In kind it is cell-based, mouse. As to the method: Con A and anti-CD3 mAb mediated proliferation assay. B6AF1 splenocytes or purified T cells were prepared according to the herein-described method and used as responder cells. Responders (2.5×10^5/well) were stimulated with either Con A (1 μg/ml) or anti-CD3 mAb (1 μg/ml) and cultured in a 96 well round bottom plates. Purified T cells (5×10^4/well) were cultured in anti-CD3 mAb (10 μg/ml) coated 96 well flat bottom plates in the presence of anti-CD28 mAb (1 μg/ml). Cells were cultured with or without biliverdin (at various concentrations) for 48 hours at 37° C., 95% air with 5% CO2. They were pulsed with ^3H-thymidine (1 μCi/well) 16 hours before termination of cell culture and ^3H-thymidine incorporation was measured by using a β-counter. These proliferation assays were performed in triplicate and were repeated 3 times.

Test [2] has as its system NFAT. Description: EMSA of nuclear extracts, NFAT DNA binding. In kind it is cell-based. The settings on record: Jurkat T cells, PMA plus ionomycin, 100 μM biliverdin. As to the method: Nuclear protein extraction and electrophoretic mobility shift assay (EMSA). Jurkat T cells were cultured in 10% FCS supplemented RPMI 1640 with 50 nM phorbol myristyl acetate (PMA) and 2 μM ionomycin (both reagents from ICN Biomedicals) in the presence or absence of 100 μM biliverdin. Following 0, 2, and 4 hrs of stimulation, cells (30×10^6 cells for each group at each time points) were collected, washed twice with PBS, and pelleted. Nuclear and cytoplasmic extracts were prepared according to a modified Shapiro's method (Shapiro et al., DNA 7(1):47-55, 1988). Protein concentrations were determined by the Bradford assay. The following oligonucleotides (Invitrogen, Calsbad, Calif.) were used for EMSA:
NFAT, (coding) 5′-[…]-3′ (SEQ ID NO:5),
(non-coding) 5′-[…]-3′ (SEQ ID NO:6); and
Oligonucleotides were radioactively labeled with [^32P] ATP. The EMSA reactions were assembled as previously described (Usheva et al., Proc. Natl. Acad. Sci. USA 93(24):13571-6, 1996). Digital images from the EMSA radiographs were obtained using an image scanner.
A general note: Mobility shift assays separate free from complexed probe on a gel.

The test system of test [3] is intestinal graft. As to the kind of experiment: Graft permeability, everted gut sac method with FD4. In kind it is in vivo, LEW rats. The settings on record: BV treated grafts. As to the method: Graft permeability. The preparation of everted gut sacs was performed in ice-cold modified Krebs-Henseleit bicarbonate buffer [KHBB (pH 7.4)] consisting of 10 mM HEPES, 137.0 mM NaCl, 5.36 mM KCl, 4.17 mM NaHCO3, 0.34 mM Na2HPO4, 0.44 mM KH2PO4, 0.41 mM MgSO47H2O, 0.49 mM MgCl26H20, 1.26 mM CaCl2, and 19.45 mM glucose. One end of the gut segment was ligated with 4-0 silk. The resulting gut sac was everted using a thin plastic rod. A groove was cut into the tip of a 5 ml plastic syringe and 1.5 mL of KHBB was drawn into the syringe. The open end of the everted gut sac was secured to the groove using 4-0 silk, and the intestine was gently distended by injecting the KHBB from the syringe. […] Following a 30 min incubation, the length of the sac was measured, and 1.0 mL of the fluid within the gut sac was collected. […] Subsequently, 300 ul of the supernatant was diluted with 3.0 mL of phosphate buffered saline, and the fluorescence of the solution was measured using a Perkin-Elmer LS-50 fluorescence spectrophotometer (Palo Alto, Calif.) at an excitation wave length of 492 nm (slit width=10.0 nm) and an emission wavelength of 515 nm (slit width=[…]).
Graft permeability. […] Graft permeability was determined by the everted gut sac method using 4 Kd Fluorescein isothiocyanate dextran.

Each structure is given as a SMILES string. Counter-ions that a name gives are not always drawn.

`C=CC1=C(C)/C(=C/C2=NC(=C\c3[nH]c(/C=C4\NC(=O)C(C)=C4C=C)c(C)c3CCC(=O)O)/C(CCC(=O)O)=C2C)NC1=O` [biliverdin, biliverdin dihydrochloride]: the “proliferation of purified T cells” value in test [1] (anti-CD3 mAb plus anti-CD28 mAb co-stimulation) was “suppressed”. Also, the “ConA or anti-CD3 mAb driven T cell proliferation” value in test [1] (biliverdin 50 μM) and in test [1] (biliverdin 100 μM) was “significant suppressive effect” throughout. Moreover, in test [2], the “DNA binding of NFAT” value is given as “inhibited DNA binding”. For the same molecule, the “inhibition of the increase of intestinal permeability” value in test [3] was around 60%.
